Patent US11111217B2, “2-arylbenzimidazoles as Ppargc1a activators for treating neurodegenerative diseases” (The Board of Trustees of the Leland Stanford Junior …, priority 2018, dated 2021)
Values joined by “and” are separate entries in the source; they are usually repeats but may differ in a detail not shown here. Identical values can stand only once.

Legend:
[1] = test system: TNF-α production by BV2 cells or PBMC; assay: Cellular assay to measure TNF-α inhibition (LPS-stimulated, ELISA); assay type: cell-based, murine (BV2) or human (PBMC); conditions: BV2 cells or PBMC (not specified), LPS 100 ng/ml over 24 hours, relative to DMSO vehicle; compound concentration not stated
From the text: Oxidative metabolism exerts an anti-inflammatory effect on myeloid cell phenotype (O'Neill L A, Front Immunol. 2014) and Ppargc1a can promote this energy metabolic pathway (Spiegelman BM, Novartis Found Symp. 2007). Thus, pharmacological activation of Ppargc1a would be expected to inhibit the inflammatory response of myeloid cells. This phenomenon can be measured in cultures by a TNF-α inhibition assay.
Cellular Assay Protocol to Measure TNF-α Inhibition
The murine myeloid cell line BV2 or human peripheral blood mononuclear cells (PBMC) are cultured in RPMI 1640 media (Cat #11875119, Gibco) supplemented with 10% fetal bovine serum and 1% L-glutamine 1% penicillin. These cells are then stimulated with 100 ng/ml of lipopolysaccharide (LPS, O111:B34, Cat # L2630, Sigma) over 24 hours. LPS stimulation results in the secretion of the inflammatory cytokine TNF-α by BV2 cells or PBMC, which can be quantified by ELISA in culture supernatant samples per manufacturer's protocol (Cat #558273 for BV2 and Cat #558299 for PBMC, BD Biosciences). To determine whether exampl compounds 1-78 inhibit TNF-α production by BV2 cells or PBMC, the cells were cultured in the presence of the compounds at different concentrations, and fold reduction in TNF-α production relative to TNF-α production by the same cells cultured in the presence of dimethylsulfoxide (as vehicle control) was determined.

[2] = Microsome stability assay, mouse liver microsomes; assay type: in vitro ADME; conditions: pH 7.4, 1 μM test compound, NADPH 1 mM, 37° C., 0-40 mins, read-out: MLM t1/2
Experimental: (§1) Microsome Stability Assay Protocol
(§2) Human liver microsomes (Corning #452117 lot 38291) or Mouse liver microsomes (Corning #452701, lot #6328004) were separately combined at a final concentration of […] with KxPO4 pH 7.4 (100 mM), MgCl2 (10 mM), and test compound (1 μM) and pre-incubated (10 min, 37° C.). Next, NADPH (1 mM) was added to begin reactions (total volume 100 μL). At various time points (0, 10, 20, and 40 mins), reactions were quenched with Clem stop solution (100 μL, 625 ng/mL) (Cyprotex) in Acetonitrile. Samples were centrifuged at 4000 g for 20 mins, diluted (75 μL into 75 μL 0.1% formic acid in water), and analyzed by LC-MS/MS.

[3] = Microsome stability assay, human liver microsomes; assay type: in vitro ADME; conditions: pH 7.4, 1 μM test compound, NADPH 1 mM, 37° C., 0-40 mins, read-out: HLM t1/2
Experimental: as §1, §2

[4] = Caco-2 permeability assay; conditions: human, Caco-2, pH 7.4, with elacridar (concentration not stated)
[5] = test system: Caco-2 cells; assay: Caco-2 permeability assay; conditions: 10 μM, HBSS pH 7.4, 37° C., 2 h; for Caco2 A → B: without elacridar
Experimental: Caco-2 Permeability Assay Protocol
Caco-2 cells were maintained in DMEM in an atmosphere of 5% CO2. For transport experiments 5×10^5 cells/well of were seeded on polycarbonate filter inserts and allowed to grow and differentiate for 21±4 days before the cell monolayers were used for experiments. Apparent permeability coefficients were determined for A→B and B→A directions with and without the presence of elacridar as a transporter inhibitor. Up to three test items and reference compounds were dissolved in Hank's balanced salt solution at pH 7.4 to yield a final concentration of 10 μM.
The assays were performed in HBSS containing 25 mM HEPES (pH 7.4) at 37° C. Prior to the study, the monolayers were washed in prewarmed HBSS. At the start of the experiments prewarmed HBSS containing the test items was added to the donor side of the monolayer and HBSS without test items was added to the receiver side. Aliquots of the receiver side were taken over the 2 h incubation period; aliquots of the donor side were taken at 0 hand 2 h. Aliquots were diluted with an equal volume of methanol/water with 0.1% formic acid containing the internal standard. The mixture was analyzed by LC-MS/MS. The apparent permeability coefficients (Papp) were calculated using the formula: Papp=(dCrec/dt)/(A×C0,donor)]×106 with dCrev/dt being the change in concentration in the receiver compartment with time, C0,donor the concentration in the donor compartment at time 0, and A the area of the compartment with the cells.

Row | half-life at 1 μM [2] | half-life at 1 μM [3] | Papp A→B at 2 h, 10 μM [4] | Caco2 A → B [5] | Caco2 B → A [5] | SMILES | TNF α Inhibition [1]
1 | 3.2 min | 4.2 min | 3.31 ×10⁻⁶ cm/s | 93.2 nm/s | – | COc1ccc(-c2nc3ccccc3[nH]2)cc1 [Example 21, 2-(4-Methoxy-phenyl)-1H-benzo[d]imidazole] | A (A = >80% inh.)
2 | 23.2 min | 103 min | 0.0849 ×10⁻⁶ cm/s | 0.748 nm/s | 1.73 nm/s | CC(C)(C)c1ccc(-c2nc3c(C(F)(F)F)cccc3[nH]2)cc1 [Example 56, 2-(4-tert-Butylphenyl)-4-(trifluoromethyl)-1H-benzo[d]imidazole] | A (A = >80% inh.)
3 | 21.4 min | 20.6 min | 0.0693 ×10⁻⁶ cm/s | 4.27 nm/s | 9.94 nm/s | CC(C)(C)c1ccc(-c2nc3c(F)c(F)ccc3[nH]2)cc1 [Example 55, 2-(4-tert-Butylphenyl)-4,5-difluoro-1H-benzo[d]imidazole] | A (A = >80% inh.)
4 | 19.8 min | 14.3 min | 0.916 ×10⁻⁶ cm/s | 15.8 nm/s | 40.7 nm/s | [2H]c1c([2H])c([2H])c2[nH]c(-c3ccc(C(C)(C)C)cc3)nc2c1[2H] [Example 60, 2-(4-tert-Butylphenyl)-4,5,6,7-tetradeuterio-1H-benzo[d]imidazole] | A (A = >80% inh.)
5 | 23.8 min | 13.6 min | 1.06 ×10⁻⁶ cm/s | 15.5 nm/s | – | [2H]c1cc([2H])c2nc(-c3ccc(C(C)(C)C)cc3)[nH]c2c1 [Example 61, 2-(4-tert-Butylphenyl)-4,6-dideuterio-1H-benzo[d]imidazole] | A (A = >80% inh.)
6 | 10.5 min | 31.3 min | 0.0634 ×10⁻⁶ cm/s | 13.3 nm/s | – | CC(C)(C)c1cccc(-c2nc3c(F)cc(F)cc3[nH]2)c1 [Example 77, 2-(3-tert-Butylphenyl)-4,6-difluoro-1H-benzo[d]imidazole] | A (A = >80% inh.)
7 | – | – | 0.0282 ×10⁻⁶ cm/s | 0.532 nm/s and 1.01 nm/s | – | CCCC(=O)OCn1c(-c2ccc(C(C)(C)C)cc2)nc2ccccc21 [Example 2-P, (2-(4-(tert-Butyl)phenyl)-1H-benzo[d]imidazol-1-yl)methyl butyrate] | –
8 | – | 10.1 min | 0.105 ×10⁻⁶ cm/s | – | – | CC(=O)OCn1c(-c2ccc(C(C)(C)C)cc2)nc2ccccc21 [Example 1-P, (2-(4-(tert-Butyl)phenyl)-1H-benzo[d]imidazol-1-yl)methyl acetate] | –
9 | 159 min | 159 min | 0.0014 ×10⁻⁶ cm/s | 0.0893, nm/s and 0.0565 nm/s | – | CC(C)(C)c1ccc(-c2nc3ccccc3n2COP(=O)(O)O)cc1 [Example 10-P, Dihydrogen ((2-(4-(tert-butyl)phenyl)-1H-benzo[d]imidazol-1-yl)methyl) phosphate] | –
10 | – | – | 1.33 ×10⁻⁶ cm/s | 16 nm/s | 28.5 nm/s | CC(C)(C)c1ccc(-c2nc3cc(C(N)=O)ccc3[nH]2)cc1 [Example 75, 2-(4-tert-Butylphenyl)-1H-benzo[d]imidazol-5-carboxamide] | A (A = >80% inh.)
11 | – | – | 2.15 ×10⁻⁶ cm/s | 24.7 nm/s and 22.3 nm/s | 57.1 nm/s | CC(C)(C)c1ccc(-c2nc3cnccc3[nH]2)cc1 [Example 2, 2-(4-(tert-Butyl)phenyl)-1H-imidazo[4,5-c]pyridine] | A (A = >80% inh.)
12 | – | – | – | – | – | COc1cccc2[nH]c(-c3ccc(C(C)(C)C)cc3)nc12 [Example 51, 2-(4-tert-Butylphenyl)-4-methoxy-1H-benzo[d]imidazole] | A (A = >80% inh.)
13 | – | – | – | – | – | Cc1ccc2[nH]c(-c3ccc(C(C)(C)C)cc3)nc2c1 [Example 38, 2-(4-tert-Butylphenyl)-5-methyl-1H-benzo[d]imidazole] | A (A = >80% inh.)
14 | 5.5 min | 25.1 min | 0.251 ×10⁻⁶ cm/s | 9.33 nm/s and 6.35 nm/s | – | COC(=O)n1c(-c2ccc(C(C)(C)C)cc2)nc2ccccc21 [Example 14-P, Methyl 2-(4-(tert-butyl)phenyl)-1H-benzo[d]imidazole-1-carboxylate] | –
15 | – | – | – | – | – | FC(F)(F)Oc1ccc(-c2nc3ccccc3[nH]2)cc1 [Example 66, 2-(4-Trifluoromethoxyphenyl)-1H-benzo[d]imidazole] | C (C = <50% inh.)
16 | – | – | – | – | – | Oc1ccc(-c2nc3ccccc3[nH]2)cc1 [Example 24, 2-(4-Hydroxy-phenyl)-1H-benzo[d]imidazole] | A (A = >80% inh.)
17 | – | – | – | – | – | FC(F)(F)c1cccc(-c2nc3ccccc3[nH]2)c1 [Example 39, 2-(3-Trifluoromethylphenyl)-1H-benzo[d]imidazole] | B (B = 50-80% inh.)

Row | half-life at 1 μM [2] | half-life at 1 μM [3] | Papp A→B at 2 h, 10 μM [4] | Caco2 A → B [5] | Caco2 B → A [5] | SMILES | TNF α Inhibition [1]
18 | – | – | – | – | – | Brc1cccc(-c2nc3ccccc3[nH]2)c1 [Example 19, 2-(3-Bromophenyl)-1H-benzo[d]imidazole] | C (C = <50% inh.)
19 | – | – | – | – | – | Cn1c(-c2ccc(C(C)(C)C)cc2)nc2ccccc21 [Example 6, 2-(4-tert-Butylphenyl)-1-methyl-benzo[d]imidazole] | B (B = 50-80% inh.)
20 | – | – | – | – | – | N#Cc1cccc(-c2nc3ccccc3[nH]2)c1 [Example 30, 2-(3-Cyanophenyl)-1H-benzo[d]imidazole] | C (C = <50% inh.)
21 | – | – | – | – | – | CC(C)Oc1ccc(-c2nc3ccccc3[nH]2)cc1 [Example 69, 2-(4-Isopropoxyphenyl)-1H-benzo[d]imidazole] | A (A = >80% inh.)
22 | – | – | – | – | – | CC(C)(C)c1ccc(-c2nc3ccccc3o2)cc1 [Example 4, 2-(4-tert-Butylphenyl)-1,3-benzoxazole] | B (B = 50-80% inh.)
23 | – | – | – | – | – | Cc1ccc(-c2nc3ccccc3[nH]2)cc1 [Example 11, 2-(4-Methylphenyl)-1H-benzo[d]imidazole] | A (A = >80% inh.)
24 | – | – | – | – | – | COc1cccc(-c2nc3ccccc3[nH]2)c1 [Example 20, 2-(3-Methoxy-phenyl)-1H-benzo[d]imidazole] | C (C = <50% inh.)
25 | – | – | – | – | – | CC(C)(C)c1ccc(-c2nc3c(F)cccc3[nH]2)cc1 [Example 49, 2-(4-tert-Butylphenyl)-4-fluoro-1H-benzo[d]imidazole] | A (A = >80% inh.)
26 | – | – | – | – | – | Clc1ccccc1-c1nc2ccccc2[nH]1 [Example 7, 2-(2-Chlorophenyl)-1H-benzo[d]imidazole] | C (C = <50% inh.)
27 | – | – | – | – | – | FC(F)(F)c1ccc(-c2nc3ccccc3[nH]2)cc1 [Example 15, 2-(4-Trifluoro-methylphenyl)-1H-benzo[d]imidazole] | C (C = <50% inh.)
28 | – | – | – | – | – | CC(C)(C)c1ccc(-c2nc3cc(F)ccc3[nH]2)cc1 [Example 41, 2-(4-tert-Butylphenyl)-5-fluoro-1H-benzo[d]imidazole] | C (C = <50% inh.)
29 | – | – | – | – | – | CC(C)c1ccc(-c2nc3ccccc3[nH]2)cc1 [Example 33, 2-(4-Isopropylphenyl)-1H-benzo[d]imidazole] | C (C = <50% inh.)
30 | – | – | – | – | – | CC(C)(C)c1ccc(-c2nc3c(O)cccc3[nH]2)cc1 [Example 50, 2-(4-tert-Butylphenyl)-1H-benzo[d]imidazol-4-ol] | A (A = >80% inh.)
31 | – | – | – | – | – | CC(C)(C)c1ccc(-c2nc3c(C(N)=O)cccc3[nH]2)cc1 [Example 74, 2-(4-tert-Butylphenyl)-1H-benzo[d]imidazol-4-carboxamide] | A (A = >80% inh.)
32 | – | – | – | – | – | FC(F)(F)C1(c2ccc(-c3nc4ccccc4[nH]3)cc2)CC1 [Example 59, 2-[4-[1-(Trifluoromethyl)-cyclopropyl]phenyl]-1H-benzo[d]imidazole] | C (C = <50% inh.)
33 | – | – | – | – | – | Fc1ccc(-c2nc3ccccc3[nH]2)cc1 [Example 34, 2-(4-Fluorophenyl)-1H-benzo[d]imidazole] | C (C = <50% inh.)
